From PMC11601558, “SLC6A19 inhibition facilitates urinary neutral amino acid excretion and lowers plasma phenylalanine” (JCI Insight, 2024) come the findings set out here.

Data set [1] can be described thus: JNT-517 plasma pharmacokinetics in healthy volunteers. Format: in vivo, human. Particulars: for half-life / Tmax: human, plasma, oral; for half-life: read-out: Mean T1/2 (converted); for Tmax: min, read-out: Median Tmax. The method, then: The plasma pharmacokinetic profile of JNT-517 was measured using a qualified high-performance LC-MS assay. Blood samples for PK analysis were taken before dosing, and 0.5, 1, 1.5, 2, 2.5, 3, 4, 6, 8, 10, 12, 24, 36, […], and 72 hours after dosing in the SAD study. For the MAD study, blood samples for PK analysis were taken before dosing, and 0.5, 1, 1.5, 2, 2.5, 3, 4, 6, 8, 10, 12, and 24 hours after dosing in the case of once-daily dosing or 0.5, 1, 1.5, 2, 2.5, 3, 4, 6, 8.5, 9 9.5, 10, 10.5, 11, 12, 14, 16, and 24 hours after dosing in the case of twice daily dosing. In addition, predose samples were collected throughout days 3–13. The resulting concentration-time data was evaluated using standard noncompartmental analysis methods, and PK parameters were calculated (Cmax, Tmax, T1/2, AUC0-inf, CL/F, Vd/F).
IC50 values for transport inhibition in cells overexpressing SLC6A19 and TMEM27 were calculated using a 4-parameter logistic regression in Collaborative Drug Discovery (CDD). Reported IC50 values are geometric means of 4–6 independent experiments. For postmortem intestinal transport assays, single outliers of quadruplicate replicates were excluded from the calculation if a signal value’s distance to the mean exceeded 35% of the signal average. The IC50 values of individual experiments were calculated with a 3- or 4-parameter logistic regression using GraphPad Prism 9. The reported IC50 value represents the geometric mean of n = 5 experiments from 3 individual donors. Statistical comparison of urinary Phe excretion in Pah^enu2 mice treated with vehicle or JN-170 was conducted using 1-way analysis of variance (ANOVA) with Tukey’s post hoc comparison. Statistical analysis of baseline-adjusted plasma Phe in mice treated with vehicle or JN-170 was determined by 2-way ANOVA with Dunnett’s post hoc comparison. All statistical analyses were performed using GraphPad Prism 9. For clinical studies, group sizes were not determined based on statistical power calculations. Statistical significance of pharmacodynamic results was not assessed. Values are reported as mean (urinary Phe excretion, T1/2, Cl/F), geometric mean (Cmax/D, AUC0-inf/D), or median (Tmax).

The nature of data set [2]: JN-170 plasma pharmacokinetics in C57Bl/6J mice, single oral dose. The data set is classed as in vivo, mouse. More on the design: JN-170 plasma level (Fig 2a): unit not given here. The method, then: Male homozygous BTBR-Pah<enu2>/J (Pah^enu2) aged 10–13 weeks were purchased from Jackson Laboratory (no. 002232). Immediately before dosing, each animal’s bladder was manually emptied and a plasma sample was drawn. Animals were dosed by oral gavage with vehicle (10% DMSO, 20% 2-hydroxypropyl-β-cyclodextrin [Sigma-Aldrich]) followed by a 1-week washout prior to dosing with JN-170 at doses ranging from 50 to 250 mg/kg. Following dosing with vehicle or JN-170, animals were individually placed in metabolic cages to collect urine samples. After collection of each urine sample, cages were rinsed with ultra-pure water to recover residual analytes. Blood samples were collected predose as well as 1, 3, 8, 12, and 24 hours after dosing with vehicle or JN-170 into tubes with EDTA as a […], and plasma was separated by centrifuging samples at 2,200g for 5 minutes at 4°C. Throughout the study, mice had access to food and water ad libitum. Plasma and urine samples were stored at –80°C until processing.Ten-week-old male WT C57Bl/6J animals (Si Bei Fu Laboratory Animal Technology Co. Ltd.) were dosed either with vehicle or 50–250 mg/kg JN-170 by oral gavage and blood and urine samples were collected as described. All animals had unrestricted access to food and water during the study; C57Bl/6J were kept on rodent maintenance diet from Beijing Keao Xieli, Pah^enu2 mice were kept on Teklad diet no. T.2018.
Plasma sample analyses were carried out by liquid chromatography tandem mass spectrometry (LC-MS/MS). Plasma samples were mixed 1:1 with carbamazepine or ^13C6-Phe as internal standards for JN-170 and Phe, respectively. Plasma proteins were precipitated by adding 4 volumes of acetonitrile (ACN) and 0.1% formic acid (FA) followed by centrifugation for 5 minutes at 2,100g. Supernatants were diluted 1:1 in ACN and 0.1% FA. For JN-170, a Waters HSS T3 reversed phase column was used for separation using a binary gradient of 0.1% FA in water (mobile phase A) to 0.1% in ACN (mobile phase B). At a flow rate of 0.8 mL/min, the mobile phase gradient increased from an initial 25% phase B to 95% phase B over 30 seconds. After, 1.5 minutes, the gradient was returned to 25% mobile phase B. For detection of Phe, an Acquity UPLC ethylene bridged hybrid (BEH) amide column was used, with a binary gradient of 10 mM ammonium acetate in 95:5:1 H2O:ACN:FA (mobile phase A) to 10 mM ammonium acetate in 95:5:1 ACN:H2O:FA (mobile phase B). At a flow rate of 0.5 mL/min, the mobile phase gradient changed from an initial 100% phase B to 50% phase B over 2.1 minutes. It was returned to 100% phase B after 4 minutes. Analytes were detected using a Sciex API-5500 in multiple reaction monitoring mode using an electrospray ionization source in the positive ion mode with the following ion transitions: m/z 435.2/84.1 (JN-170), 237.1/194.1 (carbamazepine), 166.1/120.1 (Phe), 172.2/126.2 for (^13C6-Phe). Analyte concentrations were calculated with a 1/×^2 linear regression over a concentration range of 1 or 2 to 5,000 ng/mL for JN-170 and 0.05–100 ng/mL for Phe.

Where “and” joins values, the source holds several entries; their conditions need not be identical. Equal values may be shown once. Read-outs that look alike come from different tables or passages of the source. Bounds are passed on as bounds.

Turning to `NC(=O)N1CCC[C@@H](N(C(=O)NCc2ccc(OC(F)(F)F)cc2F)C2CC2)C1` [JNT-517], the “plasma exposure exceeding the in vitro IC75” value in data set [1] (MAD 150 mg QD) was “approximately 24 hours”. Also, the “accumulation between days 1 and 14” value in data set [1] (MAD cohorts, dose levels tested) is “no accumulation was observed”. Also, the “Geomean Cmax/D” value is 45.9 ng/mL/mg in data set [1] (SAD 10 mg, %CV 23.6); 48.5 ng/mL/mg in data set [1] (SAD 25 mg, %CV 25.5); 44.6 ng/mL/mg in data set [1] (SAD 50 mg, %CV 14.8); 35.0 ng/mL/mg in data set [1] (SAD 100 mg, %CV 13.0); 32.9 ng/mL/mg in data set [1] (SAD 170 mg, %CV 24.9). Besides, the “Geomean AUC0-inf/D” value in data set [1] (SAD 10 mg, %CV 66.0) amounted to 340 ng·h/mL/mg; in data set [1] (SAD 25 mg, %CV 59.0) it was 402 ng·h/mL/mg; in data set [1] (SAD 50 mg, %CV 34.5), 348 ng·h/mL/mg; in data set [1] (SAD 100 mg, %CV 42.4), 239 ng·h/mL/mg; in data set [1] (SAD 170 mg, %CV 33.6) it was 269 ng·h/mL/mg. Besides, the “Mean Cl/F” value is on record as 3.36 L/h in data set [1] (SAD 10 mg, SD 1.75); 2.78 L/h in data set [1] (SAD 25 mg, SD 1.27); 3.00 L/h in data set [1] (SAD 50 mg, SD 0.873); 4.52 L/h in data set [1] (SAD 100 mg, SD 2.11); 3.87 L/h in data set [1] (SAD 170 mg, SD 1.15). For the same compound, the half-life in data set [1] (SAD 10 mg, %CV 50.2) was 6.37 h; in data set [1] (SAD 25 mg, %CV 50.7), 7.78 h; in data set [1] (SAD 50 mg, %CV 35.4), 6.17 h; in data set [1] (SAD 100 mg, %CV 31.9) it was 5.89 h; in data set [1] (SAD 170 mg, %CV 24.7), 6.04 h. In addition, the Tmax worked out at 0.75 h in data set [1] (SAD 10 mg, max 0.5, 1.07); 1 h in data set [1] (SAD 25 mg, max 0.5, 2.0); 0.75 h in data set [1] (SAD 50 mg, max 0.5, 2.0); 1 h in data set [1] (SAD 100 mg, max 0.5, 1.5); 0.75 h in data set [1] (SAD 170 mg, max 0.5, 2.0). Also, the “exposure above the in vitro IC75” value in data set [1] (single 50 mg dose) was above 12 h. For the same compound, the “target coverage exceeding the IC75” value in data set [1] (single 170 mg dose) is “approximately 24 hours”.
`N#Cc1ccc(-c2noc([C@]3(C(F)(F)F)CCN(C(=O)NCCC4(N)CC4)C3)n2)cc1` [JN-170]: the “JN-170 plasma level (Fig 2a)” value in data set [2] (50 mg/kg oral, 1 h, individual C57Bl/6 mice) was 4800 and 3580 and 3220 and 2280 and 3950 and 3920; in data set [2] (50 mg/kg oral, 3 h, individual C57Bl/6 mice), 1290 and 798 and 1160 and 1370 and 1130 and 1480; in data set [2] (50 mg/kg oral, 8 h, individual C57Bl/6 mice), 54.1; in data set [2] (100 mg/kg oral, 1 h, individual C57Bl/6 mice) it was 5300 and 7590 and 9540 and 8120 and 9150 and 8490; in data set [2] (100 mg/kg oral, 3 h, individual C57Bl/6 mice), 3330 and 3500 and 3620 and 5290 and 4430 and 4000; in data set [2] (100 mg/kg oral, 8 h, individual C57Bl/6 mice) it was 1010 and 870 and 627. Besides, the “JN-170 plasma level (Fig 2a)” value in data set [2] (200 mg/kg oral, 1 h, individual C57Bl/6 mice) was 12900 and 18300 and 14800 and 17900 and 16400 and 14100; in data set [2] (200 mg/kg oral, 3 h, individual C57Bl/6 mice), 9760 and 9530 and 8870 and 8820 and 12800 and 12000; in data set [2] (200 mg/kg oral, 8 h, individual C57Bl/6 mice), 2260 and 1430 and 1410 and 2700 and 2480 and 4110; in data set [2] (250 mg/kg oral, 1 h, individual C57Bl/6 mice) it was 18600 and 13000 and 21300 and 27800 and 20500 and 19600; in data set [2] (250 mg/kg oral, 3 h, individual C57Bl/6 mice) it was 13400 and 8320 and 12600 and 16100 and 11000 and 13600. Besides, the concentration at 8 h in data set [2] (male, C57Bl/6J, mouse, plasma, oral, 250 mg/kg, 250 mg/kg oral, 8 h, individual C57Bl/6 mice, read-out: JN-170 plasma level (Fig 2a)) was determined as 3650 ng/mL. Also, the concentration at 12 h in data set [2] (male, C57Bl/6J, mouse, plasma, oral, 250 mg/kg, 250 mg/kg oral, 12 h, individual C57Bl/6 mice, read-out: JN-170 plasma level (Fig 2a)) was 1760 ng/mL. In addition, the bioavailability in data set [2] (male, C57Bl/6J, mouse, plasma, po) is around 5%.

As a reminder, the Tmax is the time at which the peak concentration occurs. As a reminder, the bioavailability is dose-corrected exposure relative to a reference, in per cent.
